{
  "source": "paper PMC4925161",
  "about": "“EssC: domain structures inform on the elusive translocation channel in the Type VII secretion system” (Biochemical Journal, 2016)",
  "molecules": {"B1": {"name": "full-length membrane-bound EssC from Geobacillus thermodenitrificans NG80-2 (natural protein, UniProt A4IKE7 1-1479, looked up)", "chain": "MSQLWVLYETYCQLFSLTNEEKVIVIGNQLEHHVTVSSFSFRNGYIQIEKKSDGSTLAVLQGGRQIGELKPRCSITIDVDGQQMTIAWSGEEQRKYVYYVGQQSEVLVSNDPQADIETTNARFSLRKHRGQWVVIPDDDAPLFLNGVQLSDAVSLRNGDVLLCPYMQFVFIEEDLLAVTSSEEVVSSLTETMPPLSEMKKKYPMYRRTPRMIYELPSDKVSISFPSQEGDGDPRGLWLMVLPPVMMLLVIGAVALIQPRGVFIMISIAMFATTIVTSTAQYMREKKARQMRKEKRRRIYTNYLEQKREELQALSEKQRNVLYYHFPSFEQMKSFVMQVNSRIWERTAESADFLHVRIGTADVPATYEVSVSMGDLANREIDDLLEQAQHIAKVYQTVKHVPLPIDVSHGAIGMVGKRSIVNGEIEQLVGQIAFFHSYHDVRFVAIFSEDDYKHWEWMKWLPHFQLPNSFAKGLIYNEQTRDQLLSSIYEMLRERALDEEKDKKRFSPHFVFIVADRSLIAEHVILEYLEEKNEDIGISVIFASETKESLTENVHTLVQYINEREGEIVIQHRKAAHIPFQLDEHSTEGNESFARMLRSLNHQKGMSNSIPEKVTFLEMMQTRRANELQIVQNWLSCQTSRSLAVPIGLKGRNDVVELNLHEKAHGPHGLVAGTTGSGKSELLQTYILSLAVHFHPHEVAFLIIDYKGGGMAQPFKNMPHLLGTITNIHGSKNFSARALASINSELKKRQRLFDRYEVNHINDYMELYKQGKAEQPLPHLFLIADEFAELKSEEPDFIRELVSAARIGRSLGVHLILATQKPRGVIDEQIWSNARFRISLKMQDVNDSKEILRNGDAAAITVPGRAYLQVGNNEVYELFQSAWSGAPYVEEGVEAEDEIHIVTDLGLVPVSNVATDRKRSRQKPKTEIEMVVEQIIETQKQLNIEKLPSPWLPPLPPRLARPASVTAEANAFPIGLKDEPELQSQSDYFYQWLEDGNIGIFGSAGYGKSTTMMTLLLSFAGAYNPAQLHYYIFDFGNSALLPLRQLPHTADYFRLDDEKKIEKFIKFMKEEMEQRKQRFMEKEVSTIKLYNALSEEKLPIIIVALDNFDVVKEEMPDFETQLIQYARDGQSLGIFFIMTATRVSGIRPPLMNNLKTKIVHYFIDSSEKFSLIGRTPYDVDPIPGRALIKKDNAALTQIYLPADGEDDIEVLENVKREMERLKEVYQHIPKPKPIPMLPPRLSMSVFTNTYVQHRASGFIPVGLDEQTVRPVAINMRTDPHCLIVGQSRKGKTNVVKVILESLLVQEPESIGLLDGIDRGLAGYANRDDITYIEAKERLAQWLNEADAVLQQREREYIQAVNENRATTLAWPPVVFVVDSLLRLQQETDSIMQGRIANMMKQYSHLGFHVFVAGNANEFVKGFDALTAELKQIRQAILVTKKSEQSLFALPFTRNEQEIEPGFGYFVVGGKDQKIQIPKVE", "notes": "also called full-length EssC; full-length recombinant protein; source: E. coli LEMO21(DE3), membranes solubilized with DDM, purified (His-Trap, SEC on Superdex 200 with 0.03% DDM)"}},
  "key": {"EssC-C [1]": {"target": "T1, EssC-C (Geobacillus thermodenitrificans, UniProt A4IKE7)", "design": "gene eccC", "conditions": "D2 nucleotide site; ATP modelled in the second molecule (mant density ambiguous, crystal grown with mant-ATP); also present in SeMet structure without added nucleotide; displaces mant-ATP"}, "EssC-C [2]": {"target": "T1, EssC-C", "assay": "fluorescence titration (excitation […] nm, emission […] nm)", "type": "binding", "design": "gene eccC; C-terminal fragment, residues 966-1479 (ATPase modules D2 and D3); N-terminal His6 tag removed with TEV; E. coli host"}, "[3]": {"target": "the molecule itself", "assay": "native gel or EMSA; blue native PAGE, linear 4-12% gradient native Bis-Tris gels; 8 ug purified EssC-C or 5 ug full-length EssC (DDM-solubilized) loaded; band identity by peptide mass fingerprinting"}},
  "data": [
    {"molecule": "Nc1ncnc2c1ncn2[C@@H]1O[C@H](COP(=O)(O)OP(=O)(O)OP(=O)(O)O)[C@@H](O)[C@H]1O", "note": "[ATP]", "values": [
      {"measurement": "X-ray crystal structure (2.9 Å); displacement of mant-ATP fluorescence", "setting": "EssC-C [1]", "result": "ATP was present in the nucleotide-binding site of the D2 module"}
    ]},
    {"molecule": "CNc1ccccc1C(=O)O[C@H]1[C@@H](O)[C@H](n2cnc3c(N)ncnc32)O[C@@H]1CO[P@@](=O)(O)O[P@](=O)(O)OP(=O)(O)O", "note": "(mixture of isomers) [mant-ATP, 2′/3′-(N-methyl-anthraniloyl)-adenosine-5′-triphosphate]", "values": [
      {"measurement": "Kd", "setting": "EssC-C [2]", "result": "940 ± 110", "unit": "nM"}
    ]},
    {"molecule": "B1", "values": [
      {"measurement": "stoichiometry N", "setting": "[3]", "result": "~6"}
    ]}
  ]
}
